Results on twelve compounds are retold here after ChEMBL document CHEMBL1128969, “Design, synthesis and in vitro activities of a series of benzimidazole/benzoxazole glycoprotein IIb/IIIa inhibitors” (Bioorg Med Chem Lett, 1996).

Broadly, the Inhibition is the change of the read-out against control, counted positive when it falls. A low value points to little suppression. The IC50 is the concentration that gives 50% inhibition.

For the test, the species on record is Homo sapiens. Description: In vitro inhibition of platelet aggregation using Human platelet-Rich Plasma. Format: functional.

As to `NCc1ccc(-c2nc3cc(C(=O)N[C@@H](CC(=O)O)C(=O)NCCc4ccccc4)ccc3[nH]2)cc1`, the Inhibition came out at 16%.

With `Cc1nc2cc(C(=O)NCCC(=O)O)ccc2n1Cc1ccc(C(=N)N)cc1`, the IC50 stood at 11 µM.

On to `O=C(O)CCNC(=O)c1ccc2c(c1)ncn2CCCC1CCNCC1`, for which 16 µM corresponded to half-maximal inhibition (IC50).

`CCCCOC(=O)N[C@@H](CNC(=O)c1ccc2[nH]c(-c3ccc(C(=N)N)cc3)nc2c1)C(=O)O` displayed an IC50 of 0.05 µM.

In the case of `Cc1ccc(S(=O)(=O)N[C@@H](CNC(=O)c2ccc3oc(-c4ccc(C(=N)N)cc4)nc3c2)C(=O)O)cc1`, half-maximal inhibition (IC50) required 0.01 µM. Against the preceding compound, the IC50 is about 5-fold lower.

As for `Cc1ccc(S(=O)(=O)N[C@@H](CNC(=O)c2ccc3nc(-c4ccc(C(=N)N)cc4)oc3c2)C(=O)O)cc1`, the half-inhibitory concentration (IC50) was found to be 0.01 µM.

In turn, `CCCCOC(=O)N[C@@H](CNC(=O)c1ccc2oc(-c3ccc(C(=N)N)cc3)nc2c1)C(=O)O` had a half-maximal inhibitory concentration (IC50) of 0.02 µM.

`NCc1ccc(-c2nc3cc(C(=O)NCCC(=O)O)ccc3[nH]2)cc1` yielded an IC50 of 100 µM. This IC50 lies about 5000-fold higher than the previous one.

As for `CCCCOC(=O)N[C@@H](CNC(=O)c1ccc2nc(-c3ccc(C(=N)N)cc3)oc2c1)C(=O)O`, 0.02 µM corresponded to half-maximal inhibition (IC50).

Compound `N=C(N)c1ccc(Cn2cnc3cc(C(=O)NCCC(=O)O)ccc32)cc1` showed an IC50 of 6.8 µM.

As to `NCc1ccc(-c2nc3cc(C(=O)N[C@@H](CC(=O)O)C(=O)NCCc4c[nH]c5ccccc45)ccc3[nH]2)cc1`, the IC50 is 61 µM. Compared with the last compound, the IC50 is about 9-fold higher.

Compound `NCc1ccc(Cn2cnc3cc(C(=O)NCCC(=O)O)ccc32)cc1` came in with an IC50 of 83 µM. This IC50 and that of the compound before are within 1.5-fold of each other.
